Laboratory results reported in ChEMBL document CHEMBL1201862, “PubChem BioAssay data set” (2004).
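Where inhibition never reached the appropriate level, the endpoint shown equals the highest concentration tested. Otherwise, values were interpolated linearly from a five-concentration, 48-hour dose response in 96-well plates. Abbreviation: GI50, concentration required for 50% inhibition of growth.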 Calls of active or inactive are those of the source. Cut-off read from the data, not from the text of the source: active = GI50 up to about 1.1 µM and inactive = higher.

Columns and labels:
Assay in all cases: DTP human tumour cell line panel, 48 h
A498 = system: A498
A549 = system: A549
CCRF-CEM = system: CCRF-CEM
DLD-1 = system: DLD-1
HOP-18 = system: HOP-18
HOP-92 = system: HOP-92
KM-20L2 = system: KM-20L2
LOX IMVI = system: LOX IMVI
M14 = system: M14
SK-MEL-5 = system: SK-MEL-5
SW-620 = system: SW-620
TK-10 = system: TK-10
UACC-257 = system: UACC-257
XF498 = system: XF498
DMS-273 = system: DMS-273
HCT-15 = system: HCT-15

| Structure (SMILES) | GI50 (A498) | GI50 (A549) | GI50 (CCRF-CEM) | GI50 (DLD-1) | GI50 (HOP-18) | GI50 (HOP-92) | GI50 (KM-20L2) | GI50 (LOX IMVI) | GI50 (M14) | GI50 (SK-MEL-5) | GI50 (SW-620) | GI50 (TK-10) | GI50 (UACC-257) | GI50 (XF498) | GI50 (DMS-273) | GI50 (HCT-15) [µM] |
| --- | --- | --- | --- | --- | --- | --- | --- | --- | --- | --- | --- | --- | --- | --- | --- | --- |
| CCOC(=O)C1=C(Nc2ccccc2)OC/C1=N\NC(=O)Cc1ccccc1 | > 50 µM (inactive) | > 50 µM (inactive) | > 50 µM (inactive) | > 50 µM (inactive) | > 50 µM (inactive) | > 50 µM (inactive) | > 50 µM (inactive) | > 50 µM (inactive) | > 50 µM (inactive) | > 50 µM (inactive) | > 50 µM (inactive) | > 50 µM (inactive) | > 50 µM (inactive) | > 50 µM (inactive) | – | – |
| O=C(O)C1Cc2c([nH]c3ccccc23)C=N1 (configuration not stated) | > 100 µM (inactive) | > 100 µM (inactive) | > 100 µM (inactive) | > 100 µM (inactive) | 30.3 µM (inactive) | > 74.1 µM (inactive) | > 100 µM (inactive) | > 100 µM (inactive) | – | > 100 µM (inactive) | > 100 µM (inactive) | – | > 100 µM (inactive) | > 100 µM (inactive) | > 100 µM (inactive) | > 100 |
| Cc1ccc(C2=C(c3ccccc3)C(Br)(c3ccc(C)cc3)C(c3ccccc3)=C2c2ccc(C)cc2)cc1 | > 100 µM (inactive) | > 100 µM (inactive) | > 100 µM (inactive) | > 100 µM (inactive) | 2.09 µM (inactive) | > 100 µM (inactive) | > 100 µM (inactive) | > 100 µM (inactive) | > 100 µM (inactive) | > 100 µM (inactive) | > 100 µM (inactive) | > 100 µM (inactive) | > 100 µM (inactive) | > 100 µM (inactive) | > 100 µM (inactive) | > 100 |
| CCN(CC)CC(C)(C)C(=O)/C=C/c1ccc(C)cc1 | 4.54 µM (inactive) | 12.9 µM (inactive) | 2.82 µM (inactive) | 11.5 µM (inactive) | 11.4 µM (inactive) | 1.91 µM (inactive) | 4.17 µM (inactive) | 11 µM (inactive) | 12.1 µM (inactive) | 14.2 µM (inactive) | 3.55 µM (inactive) | 14.5 µM (inactive) | – | 7.96 µM (inactive) | – | 3.61 |
| CCCCc1ccc(-n2c3nc(=O)n(C)c(=O)c-3nc3ccccc32)cc1 | 18.7 µM (inactive) | 5.61 µM (inactive) | 13.5 µM (inactive) | – | 10.8 µM (inactive) | – | 4.4 µM (inactive) | – | 7.89 µM (inactive) | 1.52 µM (inactive) | 6.18 µM (inactive) | 13.9 µM (inactive) | 4.01 µM (inactive) | 18.2 µM (inactive) | 10.3 µM (inactive) | 6.35 |
| CCC(C(C)N1CC(=O)NC(=O)C1)N1CC(=O)NC(=O)C1 (configuration not stated) | > 100 µM (inactive) | 1.51 µM (inactive) | 4.93 µM (inactive) | > 31.3 µM (inactive) | > 100 µM (inactive) | > 100 µM (inactive) | > 69.2 µM (inactive) | > 100 µM (inactive) | – | 12.5 µM (inactive) | 17.4 µM (inactive) | – | > 100 µM (inactive) | 14.5 µM (inactive) | 12.3 µM (inactive) | > 49.7 |
| CC1(C)CC23C4COC(=O)C2CCC1C3CC4=O (configuration not stated) | 5.92 µM (inactive) | 19.1 µM (inactive) | 2.37 µM (inactive) | 11.2 µM (inactive) | 1.72 µM (inactive) | 8.26 µM (inactive) | 21.4 µM (inactive) | 8.39 µM (inactive) | – | 9.86 µM (inactive) | 3.04 µM (inactive) | – | 9.59 µM (inactive) | 13.7 µM (inactive) | 19.9 µM (inactive) | 6.52 |
| N#CNC1=NC(CCCC(=O)Nc2cccc([N+](=O)[O-])c2)=C(c2nc3ccccc3[nH]2)C(N)N1 (configuration not stated) | – | > 100 µM (inactive) | > 100 µM (inactive) | > 100 µM (inactive) | 64.9 µM (inactive) | – | > 100 µM (inactive) | > 100 µM (inactive) | > 100 µM (inactive) | > 100 µM (inactive) | > 100 µM (inactive) | > 100 µM (inactive) | > 100 µM (inactive) | > 100 µM (inactive) | > 100 µM (inactive) | 76.7 |
| CC(C(=O)C(C)O[Si](c1ccccc1)(c1ccccc1)C(C)(C)C)=P(c1ccccc1)(c1ccccc1)c1ccccc1 (configuration not stated) | 4.28 µM (inactive) | 3.3 µM (inactive) | 3.5 µM (inactive) | 4.58 µM (inactive) | 3.05 µM (inactive) | 2.21 µM (inactive) | 4.13 µM (inactive) | 3.29 µM (inactive) | 4.32 µM (inactive) | 2.75 µM (inactive) | 3.91 µM (inactive) | 4.76 µM (inactive) | 3.71 µM (inactive) | 2.79 µM (inactive) | – | 5.64 |
| CCCCC1=CSC(c2ccccc2)=C(c2ccccc2)S1 | > 100 µM (inactive) | 64.1 µM (inactive) | 21.6 µM (inactive) | 82.6 µM (inactive) | > 100 µM (inactive) | 11.7 µM (inactive) | 42.8 µM (inactive) | 20.1 µM (inactive) | 85.1 µM (inactive) | 23.9 µM (inactive) | 69 µM (inactive) | > 100 µM (inactive) | – | – | 26.7 µM (inactive) | 26.2 |
